Data as given in patent US3976779A, “1,2,3,4-Tetrahydro-carbazole compounds and β-adrenergic compositions” (Boehringer Mannheim G.m.b.H., priority 1974, dated 1976).

Legend:
cardiac β-receptor = assay: Blocking of isoprenalin tachycardia in wake rabbits (β-receptor blocking activity); conditions: for Therapeutic Index (LD50:DE250): LD50 mouse i.v. : DE250 wake rabbit i.v.; for DE250: wake rabbits, interpolated dosage which limits frequency increase to 250 beats/min, 15 min i.v. infusion, isoprenalin i.v. 30 min after infusion
Procedure: (§1) The following tests were carried out to determine the toxicity and the cardiac β-receptor blocking activity of certain test compounds by determining the inhibition of the heart beat frequency increase induced by intravenous administration of isoprenalin.
The β-receptor blocking activity of the test compounds was tested on wake rabbits weighing between 2 to 3.5 kg. and kept in wooden cages. EKG-electrodes were inserted into the hind quarters of the rabbits s.c. (II. lead) and the heart frequency was measured based on 20 heart beats. The test compounds were then infused through a small tube to the ear vein of the rabbits over a period of 15 minutes. 30 minutes after the infusion isoprenalin (3,4-dihydro-a-[(isopropylamino)-methyl]-benzylalcohol) was injected intravenously at 1 /ug/kg.

in vivo = conditions: iv, mouse, i.v., dosage at which 50% of the mice die, read-out: Acute Toxicity LD50 Mouse
Procedure: as §1

With CC(C)NCC(O)COc1cccc2[nH]c3c(c12)CCCC3 (stereo not shown) [Compound I, 1,2,3,4-Tetrahydro-5-(2-hydroxy-3-isopropylamino-propoxy)-carbazole] the “Therapeutic Index (LD50:DE250)” value (cardiac β-receptor) was ~ 200, the DE250 (cardiac β-receptor) was 0.040 mg/kg i.v and the LD50 (in vivo) was roughly 8 mg/kg.

CC(C)NCC(O)COc1cccc2ccccc12 (stereo not shown) [Compound A, 1-Isopropylamino-3-(1-napthoxy)-2-propanol, reference compound] gave a DE250 (cardiac β-receptor) of 0.400 mg/kg i.v.

With CC(C)(C)NCC(O)COc1cccc2[nH]c3c(c12)CCCC3 (stereo not shown) [Compound II, 1,2,3,4-Tetrahydro-5-(2-hydroxy-3-tert. butylaminopropoxy)-carbazole] the “Therapeutic Index (LD50:DE250)” value (cardiac β-receptor) was 875, the DE250 (cardiac β-receptor) was 0.008 mg/kg i.v and the LD50 (in vivo) was 7 mg/kg.
